Columns and labels:
Assay type in all cases: in vivo
Echinocloa crus-galli [1] = experiment: Herbicidal post-emergence action; settings: post-emergence method, 80 g/ha
How it was run: (§1)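 Post-emergence spray test: wettable-powder formulations are applied at different amounts to one-leaf-stage plants in 600 l/ha water containing 0.2% wetting agent. After roughly three weeks in the greenhouse, percent effect is rated visually relative to untreated controls.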

Alopecurus myosuroides [2] = experiment: Herbicidal post-emergence action; settings: post-emergence method, 80 g/ha
How it was run: as §1

Lolium multiflorum [3] = experiment: Herbicidal post-emergence action; settings: post-emergence method, 80 g/ha
How it was run: as §1

Setaria viridis [4] = experiment: Herbicidal post-emergence action; settings: post-emergence method, 80 g/ha
How it was run: as §1

Echinocloa crus-galli [5] = experiment: Herbicidal pre-emergence action; settings: pre-emergence method, 80 g/ha, greenhouse, visual assessment vs untreated controls
How it was run: (§2)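 Test compounds, as wettable powder suspensions with 0.2% wetting agent at a water rate of 600 l/ha, were applied in different amounts to the covering soil over freshly sown seeds in sandy loam. Emergence damage was rated visually in percent against untreated plants after three weeks under greenhouse conditions.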

Alopecurus myosuroides [6] = experiment: Herbicidal pre-emergence action; settings: pre-emergence method, 80 g/ha, greenhouse, visual assessment vs untreated controls
How it was run: as §2

Lolium multiflorum [7] = experiment: Herbicidal pre-emergence action; settings: pre-emergence method, 80 g/ha, greenhouse, visual assessment vs untreated controls
How it was run: as §2

Setaria viridis [8] = experiment: Herbicidal pre-emergence action; settings: pre-emergence method, 80 g/ha, greenhouse, visual assessment vs untreated controls
How it was run: as §2

[9] = test system: monocotylidonous and dicotylidonous weed and crop plants; experiment: Herbicidal post-emergence action (other test plants); settings: post-emergence method, 80 g/ha
How it was run: as §1

[10] = test system: monocotylidonous and dicotylidonous weed and crop plants; experiment: Herbicidal pre-emergence action (other test plants); settings: pre-emergence method, 80 g/ha, greenhouse, visual assessment vs untreated controls
How it was run: as §2

| SMILES | herbicidal effect against ECHCG (Echinochloa crus-galli) (Echinocloa crus-galli [1]) [%] | herbicidal effect against ALOMY (Alopecurus myosuroides) (Alopecurus myosuroides [2]) [%] | herbicidal effect against LOLMU (Lolium multiflorum) (Lolium multiflorum [3]) [%] | herbicidal effect against SETVI (Setaria viridis) (Setaria viridis [4]) [%] | herbicidal effect ECHCG (Echinocloa crus-galli [5]) [%] | herbicidal effect ALOMY (Alopecurus myosuroides [6]) [%] | herbicidal effect LOLMU (Lolium multiflorum [7]) [%] | herbicidal effect SETVI (Setaria viridis [8]) [%] | herbicidal effect against AVEFA (Avena fatua) [9] [%] | herbicidal effect AVEFA [10] [%] |
| --- | --- | --- | --- | --- | --- | --- | --- | --- | --- | --- |
| CCc1cc(C)cc(CC)c1C1=C(OC(=O)C(C)(C)C)C2CC3(CC2C1=O)OCCCO3 (centres unmarked) [I-b-22] | 100 | 100 | 100 | 100 | 100 | 100 | 100 | 80 | 100 | 70 |
| CCOC1COC2(C[C@@H]3C(O)=C(c4c(CC)cc(C)cc4CC)C(=O)[C@@H]3C2)OC1 (relative stereo) [I-a-28] | 100 | 100 | 100 | 100 | 100 | 100 | 100 | 90 | 100 | 80 |
| CCc1cc(C)cc(CC)c1C1=C(OC(=O)OC)C2CC3(CC2C1=O)OCCS3 (mixture of isomers) [I-c-31] | 100 | 70 | 100 | 90 | 60 | 90 | 0 | 60 | 90 | 80 |
| CCc1cc(C)cc(C)c1C1=C(OC(=O)C(C)C)C2CC3(COC(C)(C)O3)CC2C1=O (centres unmarked) [I-b-69] | 100 | 90 | 100 | 60 | 100 | 100 | 100 | 80 | 10 | 80 |
| CCOC(=O)OC1=C(c2c(C)cc(C)cc2CC)C(=O)C2CC3(COC(C)(C)O3)CC12 (mixture of isomers) [I-c-80] | 100 | 90 | 100 | 90 | 100 | 100 | 100 | 60 | 70 | 60 |
| Cc1cc(C)c(C2=C(OC(=O)C(C)(C)C)C3CC4(COC(C)(C)O4)CC3C2=O)c(C)c1 (mixture of isomers) [I-b-48] | 90 | 90 | 90 | 80 | 0 | 80 | 70 | 0 | 40 | 20 |
| CCc1cc(C)cc(CC)c1C1=C([O-])C2CC3(CC2C1=O)OCCCCO3.[Na+] (centres unmarked) [I-f-17] | 100 | 100 | 100 | 100 | 90 | 80 | 100 | 90 | 100 | 60 |
| CCOC(=O)OC1=C(c2c(CC)cc(C)cc2CC)C(=O)C2CC3(CC12)OCC(C)(C)CO3 (centres unmarked) [I-c-22] | 100 | 100 | 100 | 100 | 100 | 100 | 100 | 100 | 100 | 70 |

Reference: patent US8367873B2, “Phenyl-substituted bicyclooctane-1,3-dione derivatives” (Bayer Cropscience AG, priority 2008, dated 2013)
